What all share (experiment): NCI-60 cell line screen, 48 h
Assay [1] has as its system HCC-2998 colon.
Assay [2] deals with T-47D breast.
The test system of assay [3] is TK-10 renal.
In assay [4] the test system is SF-295 CNS.
Assay [5] relates to IGROV1 ovarian.
For assay [6], the system named is NCI-H522 lung.
In assay [7] the test system is UACC-257 melanoma.
The test system of assay [8] is K-562 leukemia.
Assay [9] deals with EKVX NSCLC.
Assay [10] has as its system MOLT-4 leukemia.

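Results reflect a 48-hour exposure of cells in 96-well plates to compound at five concentrations. Abbreviation: GI50, concentration required for 50% inhibition of growth. TGI is the concentration that stops growth completely.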

`O=C1OCC2=C1C(c1cccc(Br)c1)c1cc3c(cc1N2CCO)CCC3` (centres undefined): the GI50 in [1] was 0.13 µM; in assay [2], 2.37 µM; in [3], 0.736 µM; in assay [4], 0.034 µM; in assay [5], 0.157 µM; in [6], 0.0148 µM. Besides, the GI50 in assay [7] was 0.0235 µM; in assay [8], 0.11 µM; in assay [9] it was 0.682 µM; in assay [10] it was 0.262 µM. The TGI in [1] turned out to be 1.66 µM; in assay [2], 17.9 µM; in assay [3], 11.3 µM; in assay [4] it was 8.36 µM; in assay [5], 10.7 µM; in assay [6], 0.521 µM. The TGI in assay [7] came out at 8.12 µM; in assay [8], 7.9 µM; in [9], 19.5 µM; in assay [10] it was 14.2 µM.
Regarding `NCCNc1c2c(c(NCCN)c3[nH]ccc13)C(=O)c1ccccc1C2=O`, the GI50 in assay [1] was below 0.01 µM; in assay [2] it was 1.63 µM; in [3], 0.145 µM; in [4], below 0.0341 µM; in assay [5] it was 1.2 µM; in assay [6], 1.9 µM. Further, the GI50 was 2.63 µM in [7], 0.118 µM in assay [8], 1.25 µM in [9] and below 0.01 µM in assay [10]. The TGI in [1] is 0.093 µM; in [2], above 100 µM; in assay [3], 0.682 µM; in assay [4] it was 0.352 µM; in [5] it was above 100 µM; in assay [6], above 100 µM. For the same compound, the TGI amounted to 7.5 µM in [7], 1.14 µM in assay [8], 3.91 µM in assay [9] and 0.0437 µM in assay [10].
For the compound `Nc1nc(/C=C\c2ccc([N+](=O)[O-])s2)nc(N2CCCC2)n1`, the GI50 is 4.86 µM in assay [1]; 1.68 µM in assay [2]; 6.27 µM in assay [3]; 4.4 µM in [4]; 4.72 µM in [5]; 2.55 µM in [6]. In addition, the GI50 in [7] was 4.39 µM; in [8], 1.83 µM; in assay [9], 10.8 µM; in assay [10] it was 2.16 µM. The TGI in assay [1] was determined as 12.8 µM; in assay [2], 14.1 µM; in assay [3], 20.9 µM; in assay [4] it was 21.3 µM; in [5], 17.2 µM; in assay [6], 8.67 µM. Also, the TGI was 15.6 µM in assay [7], 8.32 µM in [8], 30 µM in assay [9] and 12.1 µM in [10].
Take `Cc1ccc(NC(=O)CC2CC2)cc1-c1ccc(C(=O)NCC2CC2)cc1`: the GI50 in assay [1] is above 25 µM; in assay [2], above 17.3 µM; in assay [3] it was above 25 µM; in assay [4], above 25 µM; in [5] it was above 25 µM; in [6] it was above 25 µM. For the same compound, the GI50 in [7] was above 25 µM; in assay [8], above 14.1 µM; in assay [9] it was above 25 µM; in assay [10] it was above 25 µM. Further, the TGI in [1], in assay [2], in assay [3], in assay [4], in assay [5] and in assay [6] was above 25 µM each time. In addition, the TGI in assay [7], in assay [8], in assay [9] and in assay [10] was above 25 µM throughout.
Regarding `Cc1ncc(C(=O)Nc2ccc(CN3CCN(C)CC3)c(C(F)(F)F)c2)cc1C#Cc1cnc(N)c2ccncc12`, the GI50 in [1] was 1.86 µM; in assay [2], 1.91 µM; in assay [3], 1.6 µM; in assay [4], 1.23 µM; in assay [5], 0.152 µM; in [6], 1.14 µM. For the same compound, the GI50 is 1.64 µM in assay [7], 1.14 µM in assay [9] and 0.389 µM in assay [10]. The TGI in assay [1] was found to be 3.39 µM; in [2], 5.88 µM; in assay [3], 4.19 µM; in [4] it was 2.93 µM; in assay [5] it was 1.42 µM; in assay [6] it was 2.5 µM. Besides, the TGI was 3.33 µM in [7], 4.48 µM in assay [8], 3.38 µM in assay [9] and 4.62 µM in assay [10].
In the case of `COc1cc2c(c(OC)c1OC)-c1ccc(SC)c(=O)cc1C(NC=O)CC2` (centres undefined), the TGI in assay [1] is above 100 µM; in [2] it was above 100 µM; in assay [3], above 100 µM; in assay [4], 0.123 µM; in [5], above 85.5 µM; in assay [6], below 0.01 µM. For the same compound, the TGI in assay [7] was above 84.8 µM; in assay [8], above 77.2 µM; in assay [9], above 85.2 µM; in [10] it was 48.9 µM.
For `CCOC(=O)C(Cc1ccc(CCCC(=O)NCCC(=O)Nc2ccc3nc(C)sc3c2)cc1)C(=O)OCC`, the GI50 in assay [1] is 60.4 µM; in assay [2], 19.7 µM; in [3], above 100 µM; in [4], 49.4 µM; in assay [5], 64.8 µM; in [6], 33.1 µM. The GI50 in assay [7] was 34.7 µM; in assay [8], 47.3 µM; in assay [9], 53.7 µM; in assay [10], 21.3 µM. The TGI was above 100 µM in assay [1]; 74.1 µM in assay [2]; above 100 µM in assay [3]; above 100 µM in [4]; above 100 µM in assay [5]; above 100 µM in assay [6]. The TGI in assay [7] is above 87.1 µM; in assay [8], above 100 µM; in assay [9] it was above 100 µM; in assay [10] it was 54.5 µM.
As for `CCOC(=O)Nc1ccc(C)c(NC(=O)OCC)c1`, the TGI in assay [1], in assay [2], in assay [3], in assay [4], in [5] and in assay [6] was above 100 µM in each case. Further, the TGI in [7], in [8], in [9] and in assay [10] was above 100 µM in each case.

These data come from PubChem BioAssay (NCI).
